{"source": "patent US11976068B2", "about": "(CHIMERIX, INC., priority 2015, dated 2024)", "key": {"[1]": {"test_system": "1020 genetically annotated cell lines", "assay": "Tumor type in vitro sensitivity, GDSC cell lines, cell viability at 72 hours", "assay_type": "cell-based", "settings": "tertile of average IC50", "description": "The estimated IC50 values were averaged across multiple cell lines for each tumor type. Tumor types were categorized into three different groups that represented tertiles of average IC50 values."}, "[2]": {"test_system": "cleaved cytokeratin 18 (cCK18)", "assay": "Phase I trial, serum M30 assay", "assay_type": "in vivo, human", "experimental": "Serum levels of cleaved cytokeratin 18 (cCK18) were assessed using the M30 assay and serum levels of total cytokeratin 18 (CK18) were assessed using the M65 assay (Perviva A.B., Sweden). Assessments of other tumor-specific markers were also evaluated per standard of care.\nGiven the heterogeneity of the tumor types in the enrolled patients, no widely used biomarker was available to uniformly assay all patient samples. In particular, the serum M30 assay is able to detect a caspase-cleaved form of cytokeratin-18 that occurs during apoptosis, which is useful in a heterogeneous study of solid tumors because most solid tumors express cytokeratin-18. The M30 sandwich ELISA has been used extensively in clinical trials as biomarkers of cell death induced by a variety of different cancer chemotherapeutic agents in a spectrum of different solid tumors. In addition to the serum M30 assay, the M65 sandwich ELISA assay, which has also been used in clinical studies to detect increases in total cytokeratin 18 that can occur with tumor necrosis and disease progression, was used to differentiate tumor apoptosis from necrosis."}, "[3]": {"assay": "Phase I trial, safety and toxicity assessment"}, "TRAIL": {"test_system": "TRAIL", "assay": "Phase I trial, serum TRAIL ELISA", "assay_type": "in vivo, human"}, "[4]": {"test_system": "human colon cancer cell line (HCT116), breast tumor cell line (MDA-MB-231), human primary glioblastoma cell line (U87)", "assay": "Cell viability, tumor cells (FIG. 1)"}, "human BCRP": {"target": "T1, human BCRP (Homo sapiens, UniProt Q9UNQ0)", "T1 sequence (Q9UNQ0 1-655)": "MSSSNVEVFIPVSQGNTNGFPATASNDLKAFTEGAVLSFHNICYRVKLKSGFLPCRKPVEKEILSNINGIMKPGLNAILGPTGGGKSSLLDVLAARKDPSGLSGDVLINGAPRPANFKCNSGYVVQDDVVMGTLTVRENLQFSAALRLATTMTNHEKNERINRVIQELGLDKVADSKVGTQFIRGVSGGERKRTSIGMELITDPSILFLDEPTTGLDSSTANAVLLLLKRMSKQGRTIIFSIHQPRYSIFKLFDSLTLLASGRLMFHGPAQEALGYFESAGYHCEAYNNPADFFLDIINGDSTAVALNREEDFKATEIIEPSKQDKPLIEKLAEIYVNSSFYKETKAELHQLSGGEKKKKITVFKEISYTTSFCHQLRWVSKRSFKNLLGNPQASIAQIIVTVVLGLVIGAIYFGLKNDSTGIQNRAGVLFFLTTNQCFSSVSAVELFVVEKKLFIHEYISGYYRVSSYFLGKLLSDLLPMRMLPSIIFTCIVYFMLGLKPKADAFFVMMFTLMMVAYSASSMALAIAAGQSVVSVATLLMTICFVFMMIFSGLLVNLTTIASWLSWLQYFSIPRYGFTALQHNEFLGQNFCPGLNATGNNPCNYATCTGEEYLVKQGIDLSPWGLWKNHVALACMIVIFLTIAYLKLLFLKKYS", "assay": "BCRP inhibition, bidirectional permeability of prazosin in MDCKII-BCRP monolayers", "settings": "at 200 micromolar"}, "[5]": {"test_system": "human foreskin fibroblasts (HFF), human fetal lung fibroblast (MRC-5) cells, human lung fibroblast cell line (WI-38)", "settings": "72 hours"}, "[6]": {"settings": "Pat # 1, NSCLC, 125 mg every three weeks, dose escalation phase"}, "[7]": {"settings": "Pat # 2, Appendiceal adenocarcinoma, 250 mg every three weeks, dose escalation phase"}, "[8]": {"settings": "Pat # 3, Uterine cancer, 375 mg every three weeks, dose escalation phase"}, "[9]": {"settings": "Pat # 4, Renal cancer, 500 mg every three weeks, dose escalation phase"}, "[10]": {"settings": "Pat # 5, Breast cancer, 625 mg every three weeks, dose escalation phase"}, "[11]": {"settings": "Pat # 6, Prostate adenocarcinoma, 625 mg every three weeks, dose escalation phase"}, "[12]": {"settings": "Pat # 7, Small cell lung cancer, 625 mg every three weeks, dose escalation phase"}, "[13]": {"settings": "Pat # 8, Colon adenocarcinoma, 625 mg every three weeks, dose escalation phase"}, "[14]": {"settings": "Pat # 9, Spindle cell sarcoma, 625 mg every three weeks, dose escalation phase"}, "[15]": {"settings": "Pat # 10, Ovarian, 625 mg every three weeks, dose escalation phase"}, "[16]": {"settings": "Pat # 11, Uterine cancer, 625 mg every three weeks, expansion phase"}, "[17]": {"settings": "Pat # 13, Ovarian cancer, 625 mg every three weeks, expansion phase"}, "[18]": {"settings": "Pat # 14, Gall bladder cancer, 625 mg every three weeks, expansion phase"}, "[19]": {"settings": "Pat # 15, Desmoplastic small round cell tumor (DSRCT), 625 mg every three weeks, expansion phase"}, "[20]": {"settings": "Pat # 16, Colon cancer, 625 mg every three weeks, expansion phase"}, "[21]": {"settings": "Pat # 17, Prostate adenocarcinoma, 625 mg every three weeks, expansion phase"}, "[22]": {"settings": "Pat # 18, Ovarian cancer, 625 mg every three weeks, expansion phase"}, "[23]": {"settings": "Pat # 19, Prostate adenocarcinoma, 625 mg every three weeks, expansion phase"}, "[24]": {"settings": "Pat # 20, Uterine Cancer, 625 mg every three weeks, expansion phase"}}}
{"smiles": "Cc1ccccc1CN1C(=O)C2=C(CCN(Cc3ccccc3)C2)N2CCN=C12", "note": "[ONC201, 7-benzyl-4-(2-methylbenzyl)-2,4,6,7,8,9-hexahydroimidazo [1,2-a]pyrido[3,4-e]pyrimidin-5(1H)-one]", "values": [{"measurement": "Tumor Type In Vitro Sensitivity", "setting": "[1]; tumor type Breast cancer", "result": "Low"}, {"measurement": "Tumor Type In Vitro Sensitivity", "setting": "[1]; tumor type Colon adenocarcinoma", "result": "High"}, {"measurement": "Tumor Type In Vitro Sensitivity", "setting": "[1]; tumor type NSCLC", "result": "Med"}, {"measurement": "Tumor Type In Vitro Sensitivity", "setting": "[1]; tumor type Ovarian", "result": "Med"}, {"measurement": "Tumor Type In Vitro Sensitivity", "setting": "[1]; tumor type Prostate adenocarcinoma", "result": "High"}, {"measurement": "Tumor Type In Vitro Sensitivity", "setting": "[1]; tumor type Renal cancer", "result": "Med"}, {"measurement": "Tumor Type In Vitro Sensitivity", "setting": "[1]; tumor type Small cell lung cancer", "result": "High"}, {"measurement": "Tumor Type In Vitro Sensitivity", "setting": "[1]; tumor type Spindle cell sarcoma", "result": "Low"}, {"measurement": "Tumor Type In Vitro Sensitivity", "setting": "[1]; tumor type Uterine cancer", "result": "Med"}, {"measurement": "M30 Induction (>50%)", "setting": "[2]; Pat # 1, NSCLC, 125 mg", "result": "No"}, {"measurement": "M30 Induction (>50%)", "setting": "[2]; Pat # 2, Appendiceal cancer, 250 mg", "result": "No"}, {"measurement": "M30 Induction (>50%)", "setting": "[2]; Pat # 3, Uterine cancer, 375 mg", "result": "Yes"}, {"measurement": "M30 Induction (>50%)", "setting": "[2]; Pat # 4, Renal cancer, 500 mg", "result": "No"}, {"measurement": "M30 Induction (>50%)", "setting": "[2]; Pat # 5, Breast cancer, 625 mg", "result": "Yes"}, {"measurement": "M30 Induction (>50%)", "setting": "[2]; Pat # 6, Prostate adenocarcinoma, 625 mg", "result": "Yes"}, {"measurement": "M30 Induction (>50%)", "setting": "[2]; Pat # 7, Small cell lung cancer, 625 mg", "result": "Yes"}, {"measurement": "M30 Induction (>50%)", "setting": "[2]; Pat # 8, Colon adenocarcinoma, 625 mg", "result": "Yes"}, {"measurement": "M30 Induction (>50%)", "setting": "[2]; Pat # 9, Spindle cell sarcoma, 625 mg", "result": "No"}, {"measurement": "M30 Induction (>50%)", "setting": "[2]; Pat # 10, Ovarian, 625 mg", "result": "No"}, {"measurement": "number of patients with induction in the M30 assay", "setting": "[2]; dose escalation phase, after a single dose, most often on day 21 post-treatment", "result": "Four"}, {"measurement": "only adverse event possibly attributed to ONC201, expansion phase", "setting": "[3]; 10 patients, 625 mg every 3 weeks", "result": "vomiting in one patient"}, {"measurement": "only adverse event possibly attributed to ONC201, dose escalation phase", "setting": "[3]; 10 patients, 125-625 mg every 3 weeks", "result": "low grade fever in one patient"}, {"measurement": "Adverse Events Grade 1", "setting": "[3]; [6]", "result": "Fever"}, {"measurement": "Adverse Events Grade 2-4", "setting": "[3]; [6]", "result": 0}, {"measurement": "Adverse Events Grade 1", "setting": "[3]; [7]", "result": 0}, {"measurement": "Adverse Events Grade 2-4", "setting": "[3]; [7]", "result": 0}, {"measurement": "Adverse Events Grade 1", "setting": "[3]; [8]", "result": 0}, {"measurement": "Adverse Events Grade 2-4", "setting": "[3]; [8]", "result": 0}, {"measurement": "Adverse Events Grade 1", "setting": "[3]; [9]", "result": 0}, {"measurement": "Adverse Events Grade 2-4", "setting": "[3]; [9]", "result": 0}, {"measurement": "Adverse Events Grade 1", "setting": "[3]; [10]", "result": 0}, {"measurement": "Adverse Events Grade 2-4", "setting": "[3]; [10]", "result": 0}, {"measurement": "Adverse Events Grade 1", "setting": "[3]; [11]", "result": 0}, {"measurement": "Adverse Events Grade 2-4", "setting": "[3]; [11]", "result": 0}, {"measurement": "Adverse Events Grade 1", "setting": "[3]; [12]", "result": 0}, {"measurement": "Adverse Events Grade 2-4", "setting": "[3]; [12]", "result": 0}, {"measurement": "Adverse Events Grade 1", "setting": "[3]; [13]", "result": 0}, {"measurement": "Adverse Events Grade 2-4", "setting": "[3]; [13]", "result": 0}, {"measurement": "Adverse Events Grade 1", "setting": "[3]; [14]", "result": 0}, {"measurement": "Adverse Events Grade 2-4", "setting": "[3]; [14]", "result": 0}, {"measurement": "Adverse Events Grade 1", "setting": "[3]; [15]", "result": 0}, {"measurement": "Adverse Events Grade 2-4", "setting": "[3]; [15]", "result": 0}, {"measurement": "Adverse Events Grade 1", "setting": "[3]; [16]", "result": 0}, {"measurement": "Adverse Events Grade 2-4", "setting": "[3]; [16]", "result": 0}, {"measurement": "Adverse Events Grade 1", "setting": "[3]; Pat # 12, Uterine cancer, 625 mg every three weeks, expansion phase", "result": 0}, {"measurement": "Adverse Events Grade 1", "setting": "[3]; [17]", "result": "Vomiting"}, {"measurement": "Adverse Events Grade 2-4", "setting": "[3]; [17]", "result": 0}, {"measurement": "Adverse Events Grade 1", "setting": "[3]; [18]", "result": 0}, {"measurement": "Adverse Events Grade 2-4", "setting": "[3]; [18]", "result": 0}, {"measurement": "Adverse Events Grade 1", "setting": "[3]; [19]", "result": 0}, {"measurement": "Adverse Events Grade 2-4", "setting": "[3]; [19]", "result": 0}, {"measurement": "Adverse Events Grade 1", "setting": "[3]; [20]", "result": 0}, {"measurement": "Adverse Events Grade 2-4", "setting": "[3]; [20]", "result": 0}, {"measurement": "Adverse Events Grade 1", "setting": "[3]; [21]", "result": 0}, {"measurement": "Adverse Events Grade 2-4", "setting": "[3]; [21]", "result": 0}, {"measurement": "Adverse Events Grade 1", "setting": "[3]; [22]", "result": 0}, {"measurement": "Adverse Events Grade 2-4", "setting": "[3]; [22]", "result": 0}, {"measurement": "Adverse Events Grade 1", "setting": "[3]; [23]", "result": 0}, {"measurement": "Adverse Events Grade 2-4", "setting": "[3]; [23]", "result": 0}, {"measurement": "Adverse Events Grade 1", "setting": "[3]; [24]", "result": 0}, {"measurement": "Adverse Events Grade 2-4", "setting": "[3]; [24]", "result": 0}, {"measurement": "drug-related adverse events", "setting": "[3]; oral 125 to 625 mg every 3 weeks", "result": "No Grade >1 drug-related adverse events occurred"}, {"measurement": "recommended phase II dose (RP2D)", "setting": "[3]; oral, once every 3 weeks", "result": 625, "unit": "mg"}, {"measurement": "Laboratory studies and physical exams", "setting": "[3]; phase I patients", "result": "did not reveal any drug-related abnormalities"}, {"measurement": "cardiovascular assessments", "setting": "[3]; phase I patients", "result": "no drug-related effects"}, {"measurement": "increase in serum TRAIL", "setting": "TRAIL; half of the patients, mostly peaked within the first 24 hours of drug administration", "result": "~20", "unit": "%"}, {"measurement": "number of patients with serum TRAIL induction", "setting": "TRAIL; serum soluble TRAIL", "result": 2}, {"measurement": "viability at 5000 µg/mL", "setting": "[4]; Homo sapiens, 72 h, read-out: viability of tumor cells", "result": "< 25", "unit": "%"}, {"measurement": "viability of tumor cells", "setting": "[4]; about 1-5 mg/mL compound (1), 72 hours", "result": "≤ 50", "unit": "%"}, {"measurement": "inhibitor of BCRP", "setting": "human BCRP", "result": "inhibitor"}, {"measurement": "cell viability of normal cells", "setting": "[5]; about 1-5 mg/mL compound (1)", "result": "at least 75%"}, {"measurement": "viability of normal cells", "setting": "[5]; beyond about 5 mg/mL compound (1)", "result": "about 75%"}]}
